# In patent publication US20230146455A1, “TREATMENT OF INFLAMMATORY DISEASES WITH PEPTIDES AND PHARMACEUTICAL COMPOSITIONS” (Yuyu Pharma, Inc., priority 2020, published 2023):
# “And” between values parts separate entries of the source, which are not always exact repeats. Identical values can stand only once. Where a SMILES comes first, the peptide text is derived from it. [ ]: non-standard residue; d: D form. Hyp = O=C(O)[C@@H]1C[C@@H](O)CN1
# Tested on: CCL20/MIP-3 alpha
# Experiment: Example 9 Luminex, LPS hPBMCs: CCL20/MIP-3 alpha
# Type: cell-based, human
# Experimental: Treatment Human PBMCs were pretreated with YY-101, YDE-011 and YDE-043 or reference compound; Xiidra® at various concentration (ranging from 1 nM to 100 uM) for 2 h before stimulation. An equal volume of 0.5% DMSO was used as a vehicle control. Then, the cells were treated with LPS at 5 ug/ml. The supernatants from treated cells were harvested at 24 h and placed in a 96 well for Luminex cytokine & chemokine profiling using a Luminex 200 multiplex assay (Luminex; R&D system, USA).
# The main study arm with triplicate wells per group in a 24-well plate: • 1. Blank • 2. PBMC: 0.5% DMSO • 3. PBMC+LPS (5 ug/ml) • 4. PBMC+YY-101 100 uM • 5. PBMC+YY-101 10 uM • 6. PBMC+YY-101 1 uM • 7. PBMC+YY-101 0.1 uM • 8. PBMC+YY-101 0.01 uM • 9. PBMC+LPS (5 ug/ml)+Xiidra®100 uM • 10. PBMC+LPS (5 ug/ml)+Xiidra® 10 uM • 11. PBMC+LPS (5 ug/ml)+Xiidra® 1 uM • 12. PBMC+LPS (5 ug/ml)+Xiidra®0.1 uM • 13. PBMC+LPS (5 ug/ml)+Xiidra®0.01 uM • 14. PBMC+LPS (5 ug/ml)+Xiidra®0.001 uM • 15. PBMC+LPS (5 ug/ml)+YY-101 100 uM • 16. PBMC+LPS (5 ug/ml)+YY-101 10 uM • 17. PBMC+LPS (5 ug/ml)+YY-101 1 uM • 18. PBMC+LPS (5 ug/ml)+YY-101 0.1 uM • 19. PBMC+LPS (5 ug/ml)+YY-101 0.01 uM • 20. PBMC+LPS (5 ug/ml)+YY-101 0.001 uM • 21. PBMC+LPS (5 ug/ml)+YDE-011 100 uM • 22. PBMC+LPS (5 ug/ml)+YDE-011 10 uM • 23. PBMC+LPS (5 ug/ml)+YDE-011 1 uM • 24. PBMC+LPS (5 ug/ml)+YDE-011 0.1 uM • 25. PBMC+LPS (5 ug/ml)+YDE-011 0.01 uM • 26. PBMC+LPS (5 ug/ml)+YDE-011 0.001 uM • 27. PBMC+LPS (5 ug/ml)+YDE-043 100 uM • 28. PBMC+LPS (5 ug/ml)+YDE-043 10 uM • 29. PBMC+LPS (5 ug/ml)+YDE-043 1 uM • 30. PBMC+LPS (5 ug/ml)+YDE-043 0.1 uM • 31. PBMC+LPS (5 ug/ml)+YDE-043 0.01 uM • 32. PBMC+LPS (5 ug/ml)+YDE-043 0.001 uM
# Multiplex assay was used to measure 30 cytokines and chemokines. The 1:2, 1:10 and 1:200 diluted cell supernatant and serial dilution of the standard were dispensed into a 96 well plate at 50 ul/well. Then, the pre-mixed cocktail of antibody-coated magnetic beads was dispensed at 50 ul/well and incubated at room temperature for 2 h in a horizontal orbital microplate shaker at 800±500 rpm. The beads were washed using a magnetic device to prevent loss. The biotin-antibody was dispensed in 50 ul of each well and incubated at room temperature for 1 h in a shaker at 800±500 rpm. After washing, streptavidin-PE was added at 50 ul/well and incubated at room temperature for 30 min in a shaker under the same conditions. Finally, after washing, wash buffer (100 ul/well) was added to the plate and incubated in a shaker for 2 min. The Luminex™ 200 setting were set according to the manufacturer's protocol. The data was calculated with a standard five-parameter logistic nonlinear regression analysis of the data (xPonent software 4.2, USA). The levels of cytokine/chemokine are normalized to the live cell counts (1×10^5 cells/mL) and presented as concentrations per mL (pg/mL or ng/mL).
# [1] = PBMC + LPS(5 ug/ml) + test article 0.001 uM, Mean
# [2] = PBMC + LPS(5 ug/ml) + test article 0.001 uM, individual replicate
# [3] = PBMC + LPS(5 ug/ml) + test article 0.01 uM, Mean
# [4] = PBMC + LPS(5 ug/ml) + test article 0.01 uM, individual replicate
# [5] = PBMC + LPS(5 ug/ml) + test article 0.1 uM, Mean
# [6] = PBMC + LPS(5 ug/ml) + test article 0.1 uM, individual replicate
# [7] = PBMC + LPS(5 ug/ml) + test article 1 uM, Mean
# [8] = PBMC + LPS(5 ug/ml) + test article 1 uM, individual replicate
# [9] = PBMC + LPS(5 ug/ml) + test article 10 uM, Mean
# [10] = PBMC + LPS(5 ug/ml) + test article 10 uM, individual replicate
# [11] = PBMC + LPS(5 ug/ml) + test article 100 uM, Mean
# [12] = PBMC + LPS(5 ug/ml) + test article 100 uM, individual replicate
SMILES,"Concentration, CCL20/MIP-3 alpha [1] [pg/mL]","MFI, CCL20/MIP-3 alpha [1]","conc/live cell, CCL20/MIP-3 alpha [1] [pg/10^5]","Concentration, CCL20/MIP-3 alpha [2]","MFI, CCL20/MIP-3 alpha [2]","conc/live cell, CCL20/MIP-3 alpha [2]","Concentration, CCL20/MIP-3 alpha [3] [pg/mL]","MFI, CCL20/MIP-3 alpha [3]","conc/live cell, CCL20/MIP-3 alpha [3] [pg/10^5]","Concentration, CCL20/MIP-3 alpha [4]","MFI, CCL20/MIP-3 alpha [4]","conc/live cell, CCL20/MIP-3 alpha [4]","Concentration, CCL20/MIP-3 alpha [5] [pg/mL]","MFI, CCL20/MIP-3 alpha [5]","conc/live cell, CCL20/MIP-3 alpha [5] [pg/10^5]","Concentration, CCL20/MIP-3 alpha [6]","MFI, CCL20/MIP-3 alpha [6]","conc/live cell, CCL20/MIP-3 alpha [6]","Concentration, CCL20/MIP-3 alpha [7] [pg/mL]","MFI, CCL20/MIP-3 alpha [7]",also measured
CC(C)C[C@H](NC(=O)CNC(=O)[C@H](CC(C)C)NC(=O)[C@H](CCC(N)=O)NC(=O)CNC(=O)[C@@H]1C[C@@H](O)CN1)C(=O)N[C@@H](C)C(=O)NCC(=O)N1CCC[C@H]1C(=O)N[C@@H](CCCCN)C(=O)O [YDE-011] (H-[Hyp]GQLGLAGPK-OH),246.5,263.3,46.9,264.2 pg/mL and 223.2 pg/mL and 252.1 pg/mL,284.5 and 235.5 and 270.0,58.7 pg/10^5 and 38.5 pg/10^5 and 43.5 pg/10^5,255.6,274.2,44.2,233.3 pg/mL and 258.8 pg/mL and 274.6 pg/mL,247.5 and 278.0 and 297.0,37.0 pg/10^5 and 41.7 pg/10^5 and 53.8 pg/10^5,239.4,254.8,42.0,238.3 pg/mL and 231.6 pg/mL and 248.4 pg/mL,253.5 and 245.5 and 265.5,36.1 pg/10^5 and 46.3 pg/10^5 and 43.6 pg/10^5,211.3,221.5,"conc/live cell, CCL20/MIP-3 alpha [7]: 42.2 pg/10^5; Concentration, CCL20/MIP-3 alpha [8]: 203.6 pg/mL and 208.7 pg/mL and 221.5 pg/mL; MFI, CCL20/MIP-3 alpha [8]: 212.5 and 218.5 and 233.5; conc/live cell, CCL20/MIP-3 alpha [8]: 37.0 pg/10^5 and 43.5 pg/10^5 and 46.1 pg/10^5; Concentration, CCL20/MIP-3 alpha [9]: 230.3 pg/mL; MFI, CCL20/MIP-3 alpha [9]: 244.0; conc/live cell, CCL20/MIP-3 alpha [9]: 43.9 pg/10^5; Concentration, CCL20/MIP-3 alpha [10]: 234.1 pg/mL and 222.3 pg/mL and 234.5 pg/mL; MFI, CCL20/MIP-3 alpha [10]: 248.5 and 234.5 and 249.0; conc/live cell, CCL20/MIP-3 alpha [10]: 43.4 pg/10^5 and 38.3 pg/10^5 and 49.9 pg/10^5; Concentration, CCL20/MIP-3 alpha [11]: 323.4 pg/mL; MFI, CCL20/MIP-3 alpha [11]: 356.5; conc/live cell, CCL20/MIP-3 alpha [11]: 53.3 pg/10^5; Concentration, CCL20/MIP-3 alpha [12]: 342.2 pg/mL and 319.4 pg/mL and 308.7 pg/mL; MFI, CCL20/MIP-3 alpha [12]: 379.5 and 351.5 and 338.5; conc/live cell, CCL20/MIP-3 alpha [12]: 56.1 pg/10^5 and 52.4 pg/10^5 and 51.5 pg/10^5"
CC(C)C[C@H](NC(=O)[C@H](CCC(N)=O)NC(=O)CNC(=O)[C@@H]1C[C@@H](O)CN1)C(=O)NCC(=O)O [YDE-043] (H-[Hyp]GQLG-OH; N-terminus and C-terminus assumed),222.1,234.3,45.5,237.5 pg/mL and 214.3 pg/mL and 214.7 pg/mL,252.5 and 225.0 and 225.5,54.0 pg/10^5 and 35.7 pg/10^5 and 46.7 pg/10^5,257.4,276.3,49.7,272.1 pg/mL and 235.8 pg/mL and 264.2 pg/mL,294.0 and 250.5 and 284.5,60.5 pg/10^5 and 35.7 pg/10^5 and 52.8 pg/10^5,269.5,290.8,50.0,269.6 pg/mL and 266.7 pg/mL and 272.1 pg/mL,291.0 and 287.5 and 294.0,53.9 pg/10^5 and 47.6 pg/10^5 and 48.6 pg/10^5,257.7,276.7,"conc/live cell, CCL20/MIP-3 alpha [7]: 48.8 pg/10^5; Concentration, CCL20/MIP-3 alpha [8]: 267.1 pg/mL and 251.7 pg/mL and 254.2 pg/mL; MFI, CCL20/MIP-3 alpha [8]: 288.0 and 269.5 and 272.5; conc/live cell, CCL20/MIP-3 alpha [8]: 46.1 pg/10^5 and 52.4 pg/10^5 and 48.0 pg/10^5; Concentration, CCL20/MIP-3 alpha [9]: 267.8 pg/mL; MFI, CCL20/MIP-3 alpha [9]: 288.8; conc/live cell, CCL20/MIP-3 alpha [9]: 49.6 pg/10^5; Concentration, CCL20/MIP-3 alpha [10]: 260.1 pg/mL and 260.9 pg/mL and 282.4 pg/mL; MFI, CCL20/MIP-3 alpha [10]: 279.5 and 280.5 and 306.5; conc/live cell, CCL20/MIP-3 alpha [10]: 50.0 pg/10^5 and 48.3 pg/10^5 and 50.4 pg/10^5; Concentration, CCL20/MIP-3 alpha [11]: 358.3 pg/mL; MFI, CCL20/MIP-3 alpha [11]: 399.5; conc/live cell, CCL20/MIP-3 alpha [11]: 56.9 pg/10^5; Concentration, CCL20/MIP-3 alpha [12]: 381.7 pg/mL and 334.8 pg/mL; MFI, CCL20/MIP-3 alpha [12]: 428.5 and 370.5; conc/live cell, CCL20/MIP-3 alpha [12]: 61.6 pg/10^5 and 52.3 pg/10^5"
